Columns and labels:
[1] = tested on: mitochondrial complex I and IV; assay: Mitochondrial complex I/IV activity in HT-treated luminal breast cancer cell lines; type: cell-based, human; settings: fulvestrant; FIG. 11e
Text: (§1) (Panel a), Representative bright field images of MCF7 po cells±CAF-EVs (3×10^9/weekly for 40 days). Bar graph of number of MS is also reported at the endpoint of the experiment (40 days). (Panel b), HT led to decreased expression of mRNA involved in protein synthesis and OXPHOS signaling with z score and -log (p-values)- as determined by Ingenuity analysis of microarray data from RNA isolated FIG. 5a (MCF7), single P values are also reported. (Panel c), OXPHOS potential determined as changes of respiration rate under mitochondrial stressors by seahorse technology (oligomycin 1 μM, rotenone 100 nM) in cancer cells isolated from FIG. 5b (MCF7, PT1). […] (Panel e), Mitochondrial Complex I/IV activity quantification as determined by nmol/min/mg of protein in luminal breast cancer cell lines from panel a. […]
To measure mitochondrial complex activity, cell pellets were resuspended in assay buffer (125 mM sucrose, 0.1 mM EDTA, 25 mM Tris-HCl pH 7.5, 0.025% Lauryl-β-D-maltoside), and enzymatic activities were assayed with 0.1-0.4·10^6 cells/ml at 25° C. spectrophotometrically. NADH:HAR reductase activity of Complex I was measured as a decrease in absorption at 340 nm (ε340 nm=6.22 mM-1 cm-1) with 200 μM NADH, 1mM HAR and 1 mM KCN. Complex IV activity was measured as cytochrome oxidation at 550 nm (ε550 nm=21.5 mM-cm-) with 50 μM ferrocytochrome c. […] Protein content was determined with a BCA assay.

[2] = tested on: mitochondrial complex protein; assay: Western blot of OXPHOS protein cocktail in HT-treated cells; type: cell-based, human; settings: fulvestrant; FIG. 11d
Text: as §1
For immunoblotting assays, cells were lysed in buffer (50 mmol/L Tris at pH 7.5, 150 mmol/L NaCl, 5 μg/mL aprotinin, pepstatin, 1% NP-40, lmmol/L EDTA, 0.25% deoxycholate, and protease inhibitor cocktail tablet, Sigma). […] The enrichment of CAFs in xenografts was determined by desmin immunohistochemistry (IHC) in tumor-derived sections. […] Viable cells were determined 7-14 days after treatment using trypan blue and cell counting using bright field microscopy or DAPI exclusion staining by flow cytometry (Dako Cytomation). […]

C[C@]12CC[C@@H]3c4ccc(O)cc4C[C@@H](CCCCCCCCC[S+]([O-])CCCC(F)(F)C(F)(F)F)[C@H]3[C@@H]1CC[C@@H]2O (some centres unmarked) [fulvestrant]
mitochondrial complex I and IV activity in cells treated with HT [1]: reduced | mitochondrial complex protein expression in cells treated with HT [2]: reduced
